In patent US8148404B2, “Modulators of CB1 receptors” (7TM Pharma A/S, priority 2006, dated 2012):

molecular target: T1, human CB1 receptor (Homo sapiens, UniProt P21554); experiment: Cannabinoid Receptor-1 functional assay: inhibition of CP55940-induced [35S]GTPγS binding to membranes of CHO-K1 cells expressing human CB1; format: biochemical; conditions: 3 nM CP55940, [35S]GTPγS SPA, hCB1 membranes; read-out: IC50 value for antagonizing a CB1 receptor agonist
T1 construct: expressed in transfected cells; membranes used
Description: Transfection and Cell Culture—The cDNA encoding the human CB1 (Cannabinoid Receptor-1) receptor (GenBank accession number NM_016083) was cloned from a human adipose tissue cDNA library and cloned into the eukaryotic expression vector pcDNA3.1 (Invitrogen).
Chinese Hamster Ovary cells (CHO-K1) stably expressing recombinant human CB1 were generated by transfecting the plasmid containing the coding sequence of the human CB1 receptor in CHO-K1 cells, using lipofectamin, according to the manufacturer instructions. Resistant clones were selected in the presence of 600 μg/ml G418 (Life technology). Stably transfected CHO-K1 cells were maintained in Ham's F-12 culture medium (Invitrogen), supplemented with 10% fetal calf serum (Invitrogen), 100 U/ml penicillin, 100 μg/ml streptomycin (Life Technology), and 600 μg/ml G418.
Functional activities of the above examples of compounds of the invention were assessed in vitro by measuring their ability to inhibit CP55940-induced [^35S]GTPγS binding to membranes prepared from CHO-K1 cells expressing the human CB1 receptor (described in Transfection and Cell Culture). CP55940 is a well known non-selective CB1 and CB2 receptor agonist (e.g Felder et al., 1995, Molecular Pharmacology, (48) 443-50). Membranes were prepared by a standard procedure. Briefly, cells were harvested using 10 mM EDTA and collected by centrifugation. Pelleted cells were homogenized in ice-cold 20 mM Hepes (pH 7.4), 10 mM EDTA and protease inhibitors (Complete protease inhibitor cocktail tablet, Roche) using an Ultra Turrax Homogenizer. The homogenate was centrifuged at 14 000 rpm for 45 min. at 4° C. The resultant pellet was resuspended in the same buffer but with only 0.1 mM EDTA and was again centrifuged at 14 000 rpm for 45 min. at 4° C. The resulting pellet (membranes) was resuspended in 20 mM Hepes (pH 7.4), 0.1 mM EDTA, 2 mM MgCl2 and protease inhibitors and protein concentration was determined by Micro BCA Protein Assay Reagent Kit (Pierce Biotechnology) according to the manufacturer instructions. The [^35S]GTPγS SPA (Scintillation Proximity Assay) binding assay was performed by incubating 5 μg/well hCB1-membranes with 1 nM [^35S]GTPγS (Perkin Elmer—NEG 030H) in the presence of 3 nM of CP55940 and various concentrations of the test compounds at room temperature for 1 hr in 96-well microtiter plates. 0.4 mg/well SPA beads (PVT-WGA; RPNQ0001 Amersham Pharmacia Biotech) were then added and the incubation continued for further 30 min. on an orbital shaker. The assay buffer contained 50 mM HEPES (pH 7.5), 50 mM NaCl, 2.5 mM MgCl2, 0.1% BSA, 1 μM GDP and 100 μg/ml Saponin. Microtiter plates were centrifuged at 1500 rpm for 5 min. and radioactivity was read immediately using a Topcounter (PerkinElmer Life Sciences). Data were analyzed and IC50 values determined by non-linear regression using the Prism software (GraphPad Software, San Diego).

T1 sequence (P21554 whole entry): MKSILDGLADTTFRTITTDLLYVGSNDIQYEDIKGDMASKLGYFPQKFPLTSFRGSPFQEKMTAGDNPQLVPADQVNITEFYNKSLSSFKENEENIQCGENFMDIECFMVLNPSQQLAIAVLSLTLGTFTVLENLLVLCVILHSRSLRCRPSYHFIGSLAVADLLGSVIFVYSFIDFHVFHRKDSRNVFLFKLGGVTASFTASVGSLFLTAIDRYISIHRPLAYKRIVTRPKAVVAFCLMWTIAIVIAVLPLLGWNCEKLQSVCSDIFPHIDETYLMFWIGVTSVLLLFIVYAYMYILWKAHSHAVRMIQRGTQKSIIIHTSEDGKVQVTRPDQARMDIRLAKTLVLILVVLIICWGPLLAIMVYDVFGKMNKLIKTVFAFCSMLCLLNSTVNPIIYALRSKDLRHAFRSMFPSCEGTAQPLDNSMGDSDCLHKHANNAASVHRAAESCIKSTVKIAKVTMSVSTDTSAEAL

N#Cc1ccc(C2CCN(C(=O)c3nn(-c4ccccc4Cl)c(-c4ccc(Cl)cc4)c3CC(=O)O)CC2)cc1 [[1.45], {1-(2-Chloro-phenyl)-5-(4-chloro-phenyl)-3-[4-(4-cyano-phenyl)-piperidine-1-carbonyl]-1H-pyrazol-4-yl}-acetic acid] and N#Cc1ccccc1C1CCN(C(=O)c2nn(-c3ccccc3Cl)c(-c3ccc(Cl)cc3)c2CC(=O)O)CC1 [[1.51], {1-(2-Chloro-phenyl)-5-(4-chloro-phenyl)-3-[4-(2-cyano-phenyl)-piperidine-1-carbonyl]-1H-pyrazol-4-yl}-acetic acid] cannot be ordered by IC50: < 300 nM for the first, < 300 nM for the second.

O=C(O)Cc1c(C(=O)N2CCCC2)nn(-c2ccccc2Cl)c1-c1ccc(Cl)cc1 [[1.46], [1-(2-Chloro-phenyl)-5-(4-chloro-phenyl)-3-(pyrrolidine-1-carbonyl)-1H-pyrazol-4-yl]-acetic acid] and O=C(O)Cc1c(C(=O)N2CCCCC2)nn(-c2ccccc2Cl)c1-c1ccc(Cl)cc1 [[1.47], [1-(2-Chloro-phenyl)-5-(4-chloro-phenyl)-3-(piperidine-1-carbonyl)-1H-pyrazol-4-yl]-acetic acid] fall in the same range of IC50: 300 to 3000 nM for the first, 300 to 3000 nM for the second.

First: O=C(O)Cc1c(C(=O)N2CCOCC2)nn(-c2ccccc2Cl)c1-c1ccc(Cl)cc1 [[1.48], [1-(2-Chloro-phenyl)-5-(4-chloro-phenyl)-3-(morpholine-4-carbonyl)-1H-pyrazol-4-yl]-acetic acid]
Second: O=C(O)Cc1c(C(=O)N2CCC(c3ccccc3Cl)CC2)nn(-c2ccccc2Cl)c1-c1ccc(Cl)cc1 [[1.54], {1-(2-Chloro-phenyl)-5-(4-chloro-phenyl)-3-[4-(2-chloro-phenyl)-piper-idine-1-carbonyl]-1H-pyrazol-4-yl}-acetic acid]
The IC50 of the first is higher: 3000 to 10000 nM for the first, < 300 nM for the second. The second is the more potent here.

O=C(O)Cc1c(C(=O)N2CCC(OCc3ccccc3)CC2)nn(-c2ccccc2Cl)c1-c1ccc(Cl)cc1 [[1.49], [3-(4-Benzyloxy-piperidine-1-carbonyl)-1-(2-chloro-phenyl)-5-(4-chloro-phenyl)-1H-pyrazol-4-yl]-acetic acid] and O=C(O)Cc1c(C(=O)N2CCC(Oc3ccccc3)CC2)nn(-c2ccccc2Cl)c1-c1ccc(Cl)cc1 [[1.58]] cannot be ordered by IC50: < 300 nM for the first, < 300 nM for the second.

O=C(O)Cc1c(C(=O)N2CCC(CO)(c3ccccc3)CC2)nn(-c2ccccc2Cl)c1-c1ccc(Cl)cc1 [[1.50], [1-(2-Chloro-phenyl)-5-(4-chloro-phenyl)-3-(4-hydroxymethyl-4-phenyl-piperidine-1-carbonyl)-1H-pyrazol-4-yl]-acetic acid] and Cc1c(C(=O)N2CCC(C(=O)O)(c3ccccc3)CC2)nn(-c2ccccc2Cl)c1-c1ccc(Cl)cc1 [[2.1], 1-[5-(4-Chloro-phenyl)-1-(2-chloro-phenyl)-4-methyl-1H-pyrazole-3-carbonyl]-4-phenyl-piperidine-4-carboxylic acid] cannot be ordered by IC50: < 300 nM for the first, < 300 nM for the second.

O=C(O)Cc1c(C(=O)N2CCC(c3cccc(F)c3)C2)nn(-c2ccccc2Cl)c1-c1ccc(Cl)cc1 (centres unmarked) [[1.55], {1-(2-Chloro-phenyl)-5-(4-chloro-phenyl)-3-[3-(3-fluoro-phenyl)-pyrrolidine-1-carbonyl]-1H-pyrazol-4-yl}-acetic acid] and O=C(O)Cc1c(C(=O)N2CCC(Oc3cccc(F)c3)CC2)nn(-c2ccccc2Cl)c1-c1ccc(Cl)cc1 [[1.62], {1-(2-Chloro-phenyl)-5-(4-chloro-phenyl)-3-[4-(3-fluorophenoxy)-piperidine-1-carbonyl]-1H-pyrazol-4-yl}-acetic acid] cannot be ordered by IC50: < 300 nM for the first, < 300 nM for the second.

Compared with CS(=O)(=O)c1cccc(C2CCN(C(=O)c3nn(-c4ccccc4Cl)c(-c4ccc(Cl)cc4)c3CC(=O)O)CC2)c1 [[1.57], {1-(2-Chloro-phenyl)-5-(4-chloro-phenyl)-3-[4-(3-methylsulfonyl-phenyl)-piperidine-1-carbonyl]-1H-pyrazol-4-yl}-acetic acid], O=C(O)Cc1c(C(=O)N2CCC(Oc3ccc(Cl)cc3)CC2)nn(-c2ccccc2Cl)c1-c1ccc(Cl)cc1 [[1.59], {1-(2-Chloro-phenyl)-5-(4-chloro-phenyl)-3-[4-(4-chlorophenoxy)-piperidine-1-carbonyl]-1H-pyrazol-4-yl}-acetic acid] is lower in IC50: 300 to 3000 nM for the first, < 300 nM for the second.

O=C(O)Cc1c(C(=O)N2CC(Oc3ccc(F)cc3)C2)nn(-c2ccccc2Cl)c1-c1ccc(Cl)cc1 [[1.60], {1-(2-Chloro-phenyl)-5-(4-chloro-phenyl)-3-[3-(4-fluorophenoxy)-azetidine-1-carbonyl]-1H-pyrazol-4-yl}-acetic acid] and O=C(O)Cc1c(C(=O)N2CCC(Oc3ccc(F)cc3)C2)nn(-c2ccccc2Cl)c1-c1ccc(Cl)cc1 (centres unmarked) [[1.64], {1-(2-Chloro-phenyl)-5-(4-chloro-phenyl)-3-[3-(4-fluorophenoxy)-pyrrolidine-1-carbonyl]-1H-pyrazol-4-yl}-acetic acid] cannot be ordered by IC50: < 300 nM for the first, < 300 nM for the second.

O=C(O)Cc1c(C(=O)N2CCC(Oc3ccc(F)c(F)c3)CC2)nn(-c2ccccc2Cl)c1-c1ccc(Cl)cc1 [[1.61], {1-(2-Chloro-phenyl)-5-(4-chloro-phenyl)-3-[4-(3,4-difluorophenoxy)-piperidine-1-carbonyl]-1H-pyrazol-4-yl}-acetic acid] and O=C(c1nn(-c2ccccc2Cl)c(-c2ccc(Cl)cc2)c1Cc1nn[nH]n1)N1CCC(Oc2ccc(F)c(F)c2)CC1 [[3.8], [1-(2-Chloro-phenyl)-5-(4-chloro-phenyl)-4-(2H-tetrazol-5-ylmethyl)-1H-pyrazol-3-yl]-[4-(3,4-difluorophenoxy)-piperidin-1-yl]-methanone] cannot be ordered by IC50: < 300 nM for the first, < 300 nM for the second.

O=C(O)Cc1c(C(=O)N2CCC(Oc3ncc(F)cn3)CC2)nn(-c2ccccc2Cl)c1-c1ccc(Cl)cc1 [[1.63], {1-(2-Chloro-phenyl)-5-(4-chloro-phenyl)-3-[4-(5-fluoropyrimidin-2-oxy)-piperidine-1-carbonyl]-1H-pyrazol-4-yl}-acetic acid] and O=C(c1nn(-c2ccccc2Cl)c(-c2ccc(Cl)cc2)c1Cc1nn[nH]n1)N1CCC(Oc2cccc(F)c2)CC1 [[3.9], [1-(2-Chloro-phenyl)-5-(4-chloro-phenyl)-4-(2H-tetrazol-5-ylmethyl)-1H-pyrazol-3-yl]-[4-(3-fluorophenoxy)-piperidin-1-yl]-methanone] cannot be ordered by IC50: < 300 nM for the first, < 300 nM for the second.

O=C(c1nn(-c2ccccc2Cl)c(-c2ccc(Cl)cc2)c1Cc1nn[nH]n1)N1CCC(O)(c2ccc(F)cc2)CC1 [[3.2], [1-(2-Chloro-phenyl)-5-(4-chloro-phenyl)-4-(2H-tetrazol-5-ylmethyl)-1H-pyrazol-3-yl]-[4-(4-fluoro-phenyl)-4-hydroxy-piperidin-1-yl]-methanone] and O=C(c1nn(-c2ccccc2Cl)c(-c2ccc(Cl)cc2)c1Cc1nn[nH]n1)N1CCC(c2ccc(F)cc2)CC1 [[3.3], [1-(2-Chloro-phenyl)-5-(4-chloro-phenyl)-4-(2H-tetrazol-5-ylmethyl)-1H-pyrazol-3-yl]-[4-(4-fluoro-phenyl)-piperidin-1-yl]-methanone] cannot be ordered by IC50: < 300 nM for the first, < 300 nM for the second.

O=C(c1nn(-c2ccccc2Cl)c(-c2ccc(Cl)cc2)c1Cc1nn[nH]n1)N1CCC(c2ccccc2F)CC1 [[3.4], [1-(2-Chloro-phenyl)-5-(4-chloro-phenyl)-4-(2H-tetrazol-5-ylmethyl)-1H-pyrazol-3-yl]-[4-(2-fluoro-phenyl)-piperidin-1-yl]-methanone] and O=C(c1nn(-c2ccccc2Cl)c(-c2ccc(Cl)cc2)c1Cc1nn[nH]n1)N1CCC(Oc2ccccc2)CC1 [[3.5], [1-(2-Chloro-phenyl)-5-(4-chloro-phenyl)-4-(2H-tetrazol-5-ylmethyl)-1H-pyrazol-3-yl]-[4-phenoxy-piperidin-1-yl]-methanone] cannot be ordered by IC50: < 300 nM for the first, < 300 nM for the second.

O=C(c1nn(-c2ccccc2Cl)c(-c2ccc(Cl)cc2)c1Cc1nn[nH]n1)N1CCC(Oc2ccc(Cl)cc2)CC1 [[3.6], [1-(2-Chloro-phenyl)-5-(4-chloro-phenyl)-4-(2H-tetrazol-5-ylmethyl)-1H-pyrazol-3-yl]-[4-(4-chlorophenoxy)-piperidin-1-yl]-methanone] and O=C(c1nn(-c2ccccc2Cl)c(-c2ccc(Cl)cc2)c1Cc1nn[nH]n1)N1CC(Oc2ccc(F)cc2)C1 [[3.7], [1-(2-Chloro-phenyl)-5-(4-chloro-phenyl)-4-(2H-tetrazol-5-ylmethyl)-1H-pyrazol-3-yl]-[3-(4-fluorophenoxy)-azetidin-1-yl]-methanone] cannot be ordered by IC50: < 300 nM for the first, < 300 nM for the second.
